#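 Growth conditions: 96-well plates. Treatment: test compound, 48 hours, 5 concentrations. Analysis: linear interpolation between bracketing concentrations; unreached endpoints set to highest concentration. Abbreviation: GI50, concentration required for 50% inhibition of growth. The concentration for full growth arrest is given as TGI.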
# Test system: UACC-257 melanoma
# Assay: NCI anticancer screen, dose series, 48 h
SMILES,TGI,GI50
O=C1[C@@H]2C(c3ccccc3F)=NO[C@@H]2C(=O)N1c1ccc(Cc2ccc(N3C(=O)[C@H]4C(c5ccccc5F)=NO[C@H]4C3=O)cc2)cc1,> 100 µM,
C=CCc1ccc(Oc2cc(CC=C)c3c(c2O)O[C@@H](CO)[C@H]3c2ccc(O)c(-c3cc(CC=C)ccc3O)c2)cc1,> 100 µM,
O=C(NCO)NCOCn1c(=O)n(CO)c(=O)n(CO)c1=O,99.4 µM,
Cc1ccc(-c2nc3ccc(Cl)cc3c(=O)n2N2C(=O)CSC2c2ccccc2Cl)cc1 (configuration not stated),> 100 µM,> 100 µM
Clc1ccc2c(c1)-c1c3c(nn1-c1ccccc1)-c1ccccc1SC3O2 (configuration not stated),> 100 µM,
C#Cc1c(I)n(C2OC(CO[Si](C)(C)C(C)(C)C)C3OC(C)(C)OC32)c(=O)[nH]c1=O (configuration not stated),29.8 µM,15.2 µM
O=C1OC2CCCC[C@@H]2C2C[C@]34CCCCC3[C@@H](C(=O)O4)C12 (some centres not stated),> 100 µM,
CCCSc1nc(COC(=O)NC)c(COC(=O)NC)n1C,> 100 µM,
O=C1CCC(O)=C1N=Nc1ccccc1,> 100 µM,
C=C1CCC(CC[C@@H]2CC[C@]3(OC2)O[C@@]2(O)CC[C@]3(C)OC2(C)C)C(C)(C)[C@H]1C/C=C1/C(=O)OC[C@@H]1O (some centres not stated),4.84 µM,
CCN(CC)c1ccc(N=Nc2ccc(-c3nc4ccc[n+](C)c4s3)cc2)cc1,24.1 µM,
C[C@]12CC[C@@H]3c4cc(OCC(F)(F)F)c(O)cc4/C(=N/O)C[C@H]3[C@@H]1CC[C@@H]2O,45.5 µM,
NC(=O)NCc1c(C(N)=O)ncn1Cc1ccccc1,> 100 µM,
COc1cc(/C=C/c2ccc(OC)c(OC)c2)cc(OC)c1,> 100 µM,
O=C1CSC(/C(=N/Nc2ccccc2)c2nc3ccccc3[nH]2)=N1,> 100 µM,
CN(C)CCN1C(=O)c2ccc3c4c(ccc(c24)C1=O)C(=O)N(CCN=C=S)C3=O,0.216 µM,0.0849 µM
O=C(c1ccccc1)C1OC12C(=O)Nc1ccccc12 (configuration not stated),> 100 µM,
COc1ccc2nc(NC(=O)C(=O)C(C#N)c3ccc([N+](=O)[O-])cc3)sc2c1 (configuration not stated),> 100 µM,
COc1cccc(C#Cc2ccccc2C#CCCCCO)c1,25.4 µM,12.5 µM

SMILES,TGI,GI50
O=C(O)[C@H](NS(=O)(=O)c1ccc([N+](=O)[O-])cc1)c1ccccc1,> 100 µM,
S=C1OC2CCCC[C@H]2O1 (some centres not stated),> 100 µM,
O=C1/C(=C/c2cccc([N+](=O)[O-])c2)COc2ccc(Br)cc21,> 100 µM,
CSC(C1c2ccccc2N(c2ccc(C)cc2)c2[nH]c(=O)n(C)c(=O)c21)S(=O)(=O)c1ccc(C)cc1 (configuration not stated),> 100 µM,
CCOC(=O)NC(=O)c1cn(CCCOC(=O)CCCCCCCCCCC(=O)OCCCn2cc(C(=O)NC(=O)OCC)c(=O)[nH]c2=O)c(=O)[nH]c1=O,> 100 µM,
COc1cc(/C=C(\C#N)c2ccccc2)cc(OC)c1,51 µM,
N#Cc1cccnc1Cl,> 100 µM,
CC(=O)N[C@H]1CSSC[C@@H](C(N)=O)NC(=O)[C@H](C(C)C)NC(=O)[C@H](C)NC(=O)[C@H](Cc2cnc[nH]2)NC1=O,> 100 µM,> 100 µM
CCCCCCCCCCCC(=O)OCC1OC(OC)C(NC(=O)N(CCCl)N=O)C(O)C1O (configuration not stated),27.5 µM,
C=CC/C=C/C/C=C/CCCCCCCc1cccc(O)c1C(=O)O,> 100 µM,
COc1ccc(OC)c2c(C(=O)O)c(Cc3ccccc3)ccc12,> 100 µM,
O=C(Nc1c(Cl)cc([N+](=O)[O-])cc1Cl)C(=O)C(C1OC(=O)c2ccccc21)[N+](=O)[O-] (configuration not stated),> 100 µM,
Cc1c(C(=O)/C=C/c2ccccc2)[n+](=O)c2ccccc2n1[O-],31.3 µM,
N#CC1CC2(C1)OCCS2 (configuration not stated),> 100 µM,
C1C[OH+]CC[OH+]CC[OH+]CC[OH+]CC[OH+]1.[Cl-].[V],> 100 µM,29.3 µM
CCCCCCCCCCCCCCCCCCOc1ccccc1CC(=O)OCC[N+]1(C)CCCC1,9.12 µM,2.82 µM
CC(=O)C(=CN1CCN(C(=O)c2ccco2)C1=S)C(C)=O,12.1 µM,2.51 µM
c1ccc(C2Nc3ccccc3C3OCCCC23)cc1 (configuration not stated),> 100 µM,
CCOc1cc(C(C)(C)C)ccc1C1=N[C@@](C)(c2ccc(Cl)cc2)[C@@](C)(c2ccc(Cl)cc2)N1C(=O)N1CCN(CCCS(C)(=O)=O)CC1,15.8 µM,2.02 µM

# Test system: HOP-62 NSCLC
# Assay: NCI anticancer screen, dose series, 48 h
SMILES,TGI,GI50
O=C1[C@@H]2C(c3ccccc3F)=NO[C@@H]2C(=O)N1c1ccc(Cc2ccc(N3C(=O)[C@H]4C(c5ccccc5F)=NO[C@H]4C3=O)cc2)cc1,> 100 µM,
C=CCc1ccc(Oc2cc(CC=C)c3c(c2O)O[C@@H](CO)[C@H]3c2ccc(O)c(-c3cc(CC=C)ccc3O)c2)cc1,> 100 µM,
Cn1c2ccccc2c(=O)c2ccc(Cl)cc21,> 10 µM,
O=C(NCO)NCOCn1c(=O)n(CO)c(=O)n(CO)c1=O,> 100 µM,
Cc1ccc(-c2nc3ccc(Cl)cc3c(=O)n2N2C(=O)CSC2c2ccccc2Cl)cc1 (configuration not stated),5.09 µM,1.98 µM
Clc1ccc2c(c1)-c1c3c(nn1-c1ccccc1)-c1ccccc1SC3O2 (configuration not stated),> 100 µM,
C#Cc1c(I)n(C2OC(CO[Si](C)(C)C(C)(C)C)C3OC(C)(C)OC32)c(=O)[nH]c1=O (configuration not stated),38.4 µM,20 µM
O=C1OC2CCCC[C@@H]2C2C[C@]34CCCCC3[C@@H](C(=O)O4)C12 (some centres not stated),> 100 µM,
CCCSc1nc(COC(=O)NC)c(COC(=O)NC)n1C,> 100 µM,
O=C1CCC(O)=C1N=Nc1ccccc1,> 100 µM,
C=C1CCC(CC[C@@H]2CC[C@]3(OC2)O[C@@]2(O)CC[C@]3(C)OC2(C)C)C(C)(C)[C@H]1C/C=C1/C(=O)OC[C@@H]1O (some centres not stated),19.9 µM,
CCN(CC)c1ccc(N=Nc2ccc(-c3nc4ccc[n+](C)c4s3)cc2)cc1,38.9 µM,
C[C@]12CC[C@@H]3c4cc(OCC(F)(F)F)c(O)cc4/C(=N/O)C[C@H]3[C@@H]1CC[C@@H]2O,0.419 µM,0.029 µM
NC(=O)NCc1c(C(N)=O)ncn1Cc1ccccc1,> 100 µM,
COc1cc(/C=C/c2ccc(OC)c(OC)c2)cc(OC)c1,> 100 µM,
O=C1CSC(/C(=N/Nc2ccccc2)c2nc3ccccc3[nH]2)=N1,67.3 µM,
CN(C)CCN1C(=O)c2ccc3c4c(ccc(c24)C1=O)C(=O)N(CCN=C=S)C3=O,0.194 µM,0.0503 µM
O=C(c1ccccc1)C1OC12C(=O)Nc1ccccc12 (configuration not stated),> 100 µM,
COc1ccc2nc(NC(=O)C(=O)C(C#N)c3ccc([N+](=O)[O-])cc3)sc2c1 (configuration not stated),> 100 µM,

SMILES,TGI,GI50
COc1cccc(C#Cc2ccccc2C#CCCCCO)c1,34.3 µM,15.5 µM
O=C(O)[C@H](NS(=O)(=O)c1ccc([N+](=O)[O-])cc1)c1ccccc1,> 100 µM,
S=C1OC2CCCC[C@H]2O1 (some centres not stated),> 100 µM,
O=C1/C(=C/c2cccc([N+](=O)[O-])c2)COc2ccc(Br)cc21,> 100 µM,
CSC(C1c2ccccc2N(c2ccc(C)cc2)c2[nH]c(=O)n(C)c(=O)c21)S(=O)(=O)c1ccc(C)cc1 (configuration not stated),> 100 µM,
CCOC(=O)NC(=O)c1cn(CCCOC(=O)CCCCCCCCCCC(=O)OCCCn2cc(C(=O)NC(=O)OCC)c(=O)[nH]c2=O)c(=O)[nH]c1=O,> 100 µM,
COc1cc(/C=C(\C#N)c2ccccc2)cc(OC)c1,> 100 µM,
N#Cc1cccnc1Cl,> 31.6 µM,
CC(=O)N[C@H]1CSSC[C@@H](C(N)=O)NC(=O)[C@H](C(C)C)NC(=O)[C@H](C)NC(=O)[C@H](Cc2cnc[nH]2)NC1=O,> 100 µM,> 100 µM
CCCCCCCCCCCC(=O)OCC1OC(OC)C(NC(=O)N(CCCl)N=O)C(O)C1O (configuration not stated),42.9 µM,
C=CC/C=C/C/C=C/CCCCCCCc1cccc(O)c1C(=O)O,67.5 µM,
COc1ccc(OC)c2c(C(=O)O)c(Cc3ccccc3)ccc12,> 100 µM,
O=C(Nc1c(Cl)cc([N+](=O)[O-])cc1Cl)C(=O)C(C1OC(=O)c2ccccc21)[N+](=O)[O-] (configuration not stated),> 100 µM,
Cc1c(C(=O)/C=C/c2ccccc2)[n+](=O)c2ccccc2n1[O-],37.9 µM,
N#CC1CC2(C1)OCCS2 (configuration not stated),> 100 µM,
COc1cc(NC(C)CCCN)c2nccc(C)c2c1 (configuration not stated),34 µM,
CC(=O)C(=CN1CCN(C(=O)c2ccco2)C1=S)C(C)=O,41.7 µM,22 µM
CCOc1cc(C(C)(C)C)ccc1C1=N[C@@](C)(c2ccc(Cl)cc2)[C@@](C)(c2ccc(Cl)cc2)N1C(=O)N1CCN(CCCS(C)(=O)=O)CC1,29.3 µM,11.4 µM

# Test system: PC-3 prostate
# Assay: NCI anticancer screen, dose series, 48 h
SMILES,TGI,GI50
Cn1c2ccccc2c(=O)c2ccc(Cl)cc21,> 10 µM,
Cc1ccc(-c2nc3ccc(Cl)cc3c(=O)n2N2C(=O)CSC2c2ccccc2Cl)cc1 (configuration not stated),> 100 µM,83 µM
C#Cc1c(I)n(C2OC(CO[Si](C)(C)C(C)(C)C)C3OC(C)(C)OC32)c(=O)[nH]c1=O (configuration not stated),4.27 µM,1.72 µM
C=C1CCC(CC[C@@H]2CC[C@]3(OC2)O[C@@]2(O)CC[C@]3(C)OC2(C)C)C(C)(C)[C@H]1C/C=C1/C(=O)OC[C@@H]1O (some centres not stated),10.7 µM,
C[C@]12CC[C@@H]3c4cc(OCC(F)(F)F)c(O)cc4/C(=N/O)C[C@H]3[C@@H]1CC[C@@H]2O,12 µM,
COc1cc(/C=C/c2ccc(OC)c(OC)c2)cc(OC)c1,> 100 µM,
CN(C)CCN1C(=O)c2ccc3c4c(ccc(c24)C1=O)C(=O)N(CCN=C=S)C3=O,0.667 µM,0.0513 µM

# From PubChem BioAssay (NCI)
